Experimental data published in the supplement of paper PMC10307832.

How the values were obtained:
Test in all cases: relative viability (nuclei count vs DMSO), 5 days (fraction); higher = more cells survive
[1] = compound: COc1cc(-c2nn([C@H]3CC[C@H](N4CCN(C(C)=O)CC4)CC3)c3ncnc(N)c23)ccc1NC(=O)c1cc2ccccc2n1C + COc1cccc2cc(-c3nc([C@H]4CC[C@H](C(=O)O)CC4)n4ncnc(N)c34)[nH]c12 [OSI-027] (partner 0.5 µM)
In short: (§1)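 Lung cancer cell lines were pin-tool dosed in 1536-well plates on the day after seeding, with either a lone drug or a fixed anchor-drug dose plus five library-drug doses (not always all listed) in √10 steps. Nuclei were counted on 4× images after 5 days. Relative viability is the ratio of treated-well to vehicle-well nuclei counts, with each value a median of duplicate plates.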

[2] = compound: COc1cc(-c2nn([C@H]3CC[C@H](N4CCN(C(C)=O)CC4)CC3)c3ncnc(N)c23)ccc1NC(=O)c1cc2ccccc2n1C + C[C@@H](Oc1cc(-c2cnn(C3CCNCC3)c2)cnc1N)c1c(Cl)ccc(F)c1Cl [Crizotinib] (partner 1 µM)
In short: as §1

[3] = compound: COc1cc(-c2nn([C@H]3CC[C@H](N4CCN(C(C)=O)CC4)CC3)c3ncnc(N)c23)ccc1NC(=O)c1cc2ccccc2n1C + CC(=O)Nc1cccc(-n2c(=O)n(C3CC3)c(=O)c3c(Nc4ccc(I)cc4F)n(C)c(=O)c(C)c32)c1 [Trametinib] (partner 0.02 µM)
In short: as §1

[4] = compound: CO[C@@H]1[C@H](N(C)C(=O)c2ccccc2)C[C@H]2O[C@]1(C)n1c3ccccc3c3c4c(c5c6ccccc6n2c5c31)C(=O)NC4 [Midostaurin] + Cc1nc(Nc2ncc(C(=O)Nc3c(C)cccc3Cl)s2)cc(N2CCN(CCO)CC2)n1 [Dasatinib] (partner 0.075 µM)
In short: as §1

[5] = compound: CO[C@@H]1[C@H](N(C)C(=O)c2ccccc2)C[C@H]2O[C@]1(C)n1c3ccccc3c3c4c(c5c6ccccc6n2c5c31)C(=O)NC4 [Midostaurin] + O=C(c1cc(Cc2n[nH]c(=O)c3ccccc23)ccc1F)N1CCN(C(=O)C2CC2)CC1 [Olaparib] (partner 8 µM)
In short: as §1

Row | Cell Line | relative viability ([1]; first compound 0.0128 µM) | relative viability ([1]; first compound 0.04048 µM) | relative viability ([1]; first compound 0.128 µM) | relative viability ([1]; first compound 1.28 µM) | relative viability ([2]; first compound 0.0128 µM) | relative viability ([2]; first compound 0.04048 µM) | relative viability ([2]; first compound 0.128 µM) | relative viability ([2]; first compound 1.28 µM) | relative viability ([3]; first compound 0.0128 µM) | relative viability ([3]; first compound 0.04048 µM) | relative viability ([3]; first compound 0.128 µM) | relative viability ([3]; first compound 1.28 µM) | relative viability ([4]; first compound 0.01 µM) | relative viability ([4]; first compound 0.03162 µM) | relative viability ([4]; first compound 0.1 µM) | relative viability ([4]; first compound 0.3162 µM) | relative viability ([5]; first compound 0.01 µM) | relative viability ([5]; first compound 0.03162 µM) | relative viability ([5]; first compound 0.1 µM) | relative viability ([5]; first compound 0.3162 µM)
1 | EMC-BAC-2 | 0.347 | 0.531 | 0.385 | 0.352 | 0.759 | 0.848 | 0.731 | 0.532 | 0.901 | 0.537 | 0.834 | 1.02 | 0.358 | 0.372 | 0.273 | 0.248 | 0.459 | 0.497 | 0.411 | 0.374
2 | LK-2 | 0.267 | 0.187 | 0.198 | 0.184 | 0.215 | 0.259 | 0.187 | 0.199 | 0.978 | 0.399 | 0.577 | 0.47 | 0.333 | 0.251 | 0.393 | 0.501 | 0.686 | 0.612 | 0.878 | 0.791
3 | NCI-H2126 | 0.686 | 0.661 | 0.646 | 0.547 | 1.16 | 1.08 | 1.04 | 0.749 | 0.55 | 0.497 | 0.508 | 0.448 | 0.623 | 0.502 | 0.596 | 0.644 | 0.813 | 0.901 | 0.853 | 0.779
4 | NCI-H3122 | 0.992 | 0.333 | 0.969 | 0.847 | 0.289 | – | 0.269 | 0.229 | 0.209 | – | 0.165 | 0.162 | 0.779 | 0.698 | 0.731 | 0.978 | 0.655 | 0.614 | 0.573 | 0.723
5 | NCI-H1975 | 0.676 | 0.669 | 0.611 | 0.277 | 0.869 | 1.18 | 0.966 | 0.424 | 0.328 | 0.293 | 0.349 | 0.207 | 0.381 | 0.374 | 0.326 | 0.296 | 0.733 | 0.677 | 0.701 | 0.466
6 | NCI-H1944 | 0.457 | 0.332 | 0.412 | 0.353 | 1.12 | 1.14 | 1.02 | 0.787 | 0.455 | 0.274 | 0.393 | 0.295 | 0.222 | 0.227 | 0.234 | 0.222 | 0.388 | 0.433 | 0.402 | 0.429
7 | LU99A | 0.307 | 0.323 | 0.329 | 0.312 | 0.629 | 0.522 | 0.545 | 0.696 | 0.578 | 0.288 | 0.529 | 0.489 | 0.434 | 0.549 | 0.541 | 0.348 | 0.261 | 0.295 | 0.257 | 0.207
8 | HCC-44 | 0.477 | 0.528 | 0.549 | 0.484 | 0.931 | 0.825 | 0.847 | 1.06 | 1.19 | 0.716 | 1.07 | 1.03 | – | – | – | – | 0.999 | 0.957 | 0.983 | 1
9 | NCI-H1299 | – | – | – | – | 0.966 | 1.07 | 0.987 | 1.13 | – | – | – | – | – | – | – | – | 0.919 | 0.942 | 0.985 | 0.924
10 | ABC-1 | 0.499 | 0.434 | 0.384 | 0.377 | 1.01 | 0.98 | 0.87 | 0.766 | – | – | – | – | 0.512 | 0.668 | 0.451 | 0.504 | 0.691 | 1.31 | 0.59 | 0.928
11 | NCI-H1793 | 0.369 | 0.177 | 0.237 | 0.186 | – | – | – | – | 0.446 | 0.24 | 0.469 | 0.359 | 0.481 | 0.38 | 0.345 | 0.362 | 0.923 | 0.804 | 0.644 | 0.431
12 | SW 900 | 0.536 | 0.588 | 0.497 | 0.356 | – | – | – | – | 1.05 | 0.82 | 0.778 | 0.432 | 0.7 | 0.684 | 0.538 | 0.275 | 0.826 | 1.08 | 0.852 | 0.575
13 | NCI-H1563 | 0.711 | 0.86 | 0.848 | 0.59 | 0.625 | 0.805 | 0.926 | 0.729 | – | – | – | – | 0.402 | 0.469 | 0.43 | 0.465 | – | – | – | –
14 | A549 | – | – | – | – | 0.854 | 1.02 | 0.686 | 0.719 | – | – | – | – | – | – | – | – | 0.256 | 0.39 | 0.359 | 0.216
15 | NCI-H2342 | 0.521 | 0.706 | 0.644 | 0.493 | – | – | – | – | 0.92 | 0.766 | 0.886 | 0.745 | 0.332 | 0.305 | 0.319 | 0.327 | 0.419 | 0.394 | 0.422 | 0.489
16 | NCI-H1623 | 0.422 | 0.342 | 0.399 | 0.37 | – | – | – | – | – | – | – | – | 0.53 | 0.594 | 0.507 | 0.652 | – | – | – | –
17 | NCI-H522 | 0.8 | 0.725 | 0.812 | 0.651 | – | – | – | – | 0.77 | 0.514 | 0.723 | 0.73 | 0.981 | 0.995 | 0.789 | 1.04 | 0.546 | 0.748 | 0.578 | 0.682
18 | NCI-H1395 | 0.573 | 0.674 | 0.723 | 0.556 | – | – | – | – | 1.02 | 0.945 | 0.967 | 0.667 | 0.435 | 0.38 | 0.404 | 0.403 | 0.44 | 0.468 | 0.454 | 0.465
19 | IA-LM | – | – | – | – | 1.02 | 1.07 | 0.903 | 1.1 | – | – | – | – | – | – | – | – | 0.746 | 0.653 | 0.748 | 0.881
20 | EBC-1 | – | – | – | – | 0.193 | 0.198 | 0.24 | 0.185 | – | – | – | – | – | – | – | – | 0.719 | 0.589 | 0.673 | 0.679
